One block for each compound: values may come before it. The source made the active and inactive calls. The rule behind the calls is not given here.
How the values were obtained:
Dipeptidyl peptidase 8 = Dipeptidyl peptidase 8 (Homo sapiens, UniProt Q6V1X1); experiment: Inhibition of human recombinant DPP-8 expressed in Sf9 cells using H-Gly-Pro-AMC as substrate preincubated for 30 mins before substrate addition measured after 20 mins by fluorescence assay
[1] = Oral bioavailability in Sprague-Dawley rat at 5 mg/kg; assay type: ADME, organism-based; conditions: in vivo
[2] = Drug level in Sprague-Dawley rat plasma at 3 mg/kg at Tmax; assay type: ADME, organism-based; parameters: dose 3 mg/kg; conditions: read-out: Drug uptake
[3] = Cmax in Sprague-Dawley rat at 10 mg/kg, po; assay type: ADME, organism-based; parameters: dose 10 mg/kg, route oral; conditions: in vivo
[4] = Cmax in Sprague-Dawley rat at 3 mg/kg, po; assay type: ADME, organism-based; parameters: dose 3 mg/kg, route oral; conditions: in vivo
[5] = Tmax in Sprague-Dawley rat at 10 mg/kg, po; assay type: ADME, organism-based; parameters: dose 10 mg/kg, route oral; conditions: in vivo
[6] = Tmax in Sprague-Dawley rat at 3 mg/kg, po; assay type: ADME, organism-based; parameters: dose 3 mg/kg, route oral; conditions: in vivo
[7] = Terminal half life in Sprague-Dawley rat at 10 mg/kg, po; assay type: ADME, organism-based; parameters: dose 10 mg/kg, route oral; conditions: in vivo, read-out: beta t1/2 (converted)
Rattus norvegicus [8] = experiment: AUC in Sprague-Dawley rat at 10 mg/kg, po; assay type: ADME, organism-based, Plasma; parameters: dose 10 mg/kg, route oral; conditions: in vivo
[9] = Oral bioavailability in Sprague-Dawley rat at 10 mg/kg; assay type: ADME, organism-based; conditions: in vivo
[10] = Total clearance in Beagle dog at 0.2 mg/kg, iv; assay type: ADME, organism-based, Canis lupus familiaris; parameters: dose 0.2 mg/kg, route intravenous; conditions: in vivo
Canis familiaris [11] = experiment: Volume of distribution at steady state in Beagle dog at 0.2 mg/kg, iv; assay type: ADME, organism-based, Canis lupus familiaris; parameters: dose 0.2 mg/kg, route intravenous; conditions: in vivo
[12] = Cmax in Beagle dog at 0.5 mg/kg, po; assay type: ADME, organism-based, Canis lupus familiaris; parameters: dose 0.5 mg/kg, route oral; conditions: in vivo
[13] = Tmax in Beagle dog at 0.5 mg/kg, po; assay type: ADME, organism-based, Canis lupus familiaris; parameters: dose 0.5 mg/kg, route oral; conditions: in vivo
[14] = Terminal half life in Beagle dog at 0.5 mg/kg, po; assay type: ADME, organism-based, Canis lupus familiaris; parameters: dose 0.5 mg/kg, route oral; conditions: in vivo, read-out: beta t1/2 (converted)
Canis familiaris [15] = experiment: AUC in Beagle dog at 0.5 mg/kg, po; assay type: ADME, organism-based, Canis lupus familiaris, Plasma; parameters: dose 0.5 mg/kg, route oral; conditions: in vivo
[16] = Oral bioavailability in Beagle dog at 0.5 mg/kg; assay type: ADME, organism-based, Canis lupus familiaris; conditions: in vivo
[17] = Total clearance in Sprague-Dawley rat at 3 mg/kg, iv; assay type: ADME, organism-based; parameters: dose 3 mg/kg, route intravenous; conditions: in vivo
Rattus norvegicus [18] = experiment: Volume of distribution at steady state in Sprague-Dawley rat at 3 mg/kg, iv; assay type: ADME, organism-based; parameters: dose 3 mg/kg, route intravenous; conditions: in vivo
[19] = Plasma protein binding in rat at 20 ng/ml after 0.5 hrs by LC-MS/MS analysis; assay type: ADME, cell-free; conditions: read-out: PPB (converted)
[20] = Plasma protein binding in rat at 2000 ng/ml after 0.5 hrs by LC-MS/MS analysis; assay type: ADME, cell-free; conditions: read-out: PPB (converted)
[21] = Plasma protein binding in dog at 20 ng/ml after 0.5 hrs by LC-MS/MS analysis; assay type: ADME, cell-free, Canis lupus familiaris; conditions: read-out: PPB (converted)
[22] = Plasma protein binding in dog at 2000 ng/ml after 0.5 hrs by LC-MS/MS analysis; assay type: ADME, cell-free, Canis lupus familiaris; conditions: read-out: PPB (converted)
[23] = Plasma protein binding in human at 20 ng/ml after 0.5 hrs by LC-MS/MS analysis; assay type: ADME, cell-free; conditions: read-out: PPB (converted)
[24] = Plasma protein binding in human at 2000 ng/ml after 0.5 hrs by LC-MS/MS analysis; assay type: ADME, cell-free; conditions: read-out: PPB (converted)
Rattus norvegicus [25] = experiment: Antidiabetic activity in Wistar/ST rat plasma assessed as reduction in glucose AUC (0 to 60 mins) at 10 mg/kg, po pretreated 30 mins before glucose challenge measured for 2 hrs by oral glucose tolerance test; assay type: functional, organism-based; parameters: dose 10 mg/kg
Rattus norvegicus [26] = experiment: Inhibition of plasma DPP-4 activity in Wistar/ST rat at 10 mg/kg, po pretreated 30 mins before glucose challenge measured within 30 mins; assay type: functional
Rattus norvegicus [27] = experiment: Inhibition of plasma DPP-4 activity in orally dosed Wistar/ST rat pretreated 30 mins before glucose challenge measured for 2 hrs during oral glucose tolerance test; assay type: functional, organism-based
Rattus norvegicus [28] = experiment: Inhibition of plasma DPP-4 activity in Wistar/ST rat at 3 mg/kg, po pretreated 30 mins before glucose challenge measured for 2 hrs during oral glucose tolerance test; assay type: functional

Chain of Dipeptidyl peptidase 8 (Q6V1X1 whole entry): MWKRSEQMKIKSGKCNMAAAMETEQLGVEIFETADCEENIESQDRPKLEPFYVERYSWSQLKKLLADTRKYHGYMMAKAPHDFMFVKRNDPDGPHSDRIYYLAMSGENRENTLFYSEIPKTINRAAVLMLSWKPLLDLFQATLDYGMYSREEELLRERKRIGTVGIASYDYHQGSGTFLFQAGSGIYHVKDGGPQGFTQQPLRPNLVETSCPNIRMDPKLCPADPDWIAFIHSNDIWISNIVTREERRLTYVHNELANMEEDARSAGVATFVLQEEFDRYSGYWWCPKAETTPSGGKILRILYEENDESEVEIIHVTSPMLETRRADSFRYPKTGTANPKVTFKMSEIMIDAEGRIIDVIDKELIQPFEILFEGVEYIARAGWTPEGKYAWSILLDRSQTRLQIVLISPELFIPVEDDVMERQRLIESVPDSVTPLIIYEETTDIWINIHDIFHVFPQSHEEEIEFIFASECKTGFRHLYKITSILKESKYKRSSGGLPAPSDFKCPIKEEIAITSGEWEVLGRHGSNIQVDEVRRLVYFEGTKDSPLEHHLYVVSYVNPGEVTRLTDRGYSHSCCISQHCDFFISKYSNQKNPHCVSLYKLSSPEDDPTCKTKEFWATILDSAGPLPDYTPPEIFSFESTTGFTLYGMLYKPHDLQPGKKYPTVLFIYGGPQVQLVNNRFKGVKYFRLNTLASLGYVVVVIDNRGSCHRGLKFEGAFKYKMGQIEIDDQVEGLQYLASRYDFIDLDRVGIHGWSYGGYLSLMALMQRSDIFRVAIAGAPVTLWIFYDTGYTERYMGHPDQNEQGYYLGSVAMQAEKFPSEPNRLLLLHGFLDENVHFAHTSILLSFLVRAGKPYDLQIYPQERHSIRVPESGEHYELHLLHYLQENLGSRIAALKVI

- IC50 (Dipeptidyl peptidase 8): > 100 µM
Compound: Cc1c(C(=O)NCC(C)(C)NCC(=O)N2CCC[C@H]2C#N)cnc2cc(C(C)(C)C)nn12

- bioavailability [1]: 4.1%
Compound: Cc1cc2ncc(C(=O)NCC(C)(C)NCC(=O)N3CCC[C@H]3C#N)c(O)n2n1.Cl

- IC50 (Dipeptidyl peptidase 8): > 100 µM
Compound: Cc1cc2ncc(C(=O)NCC(C)(C)NCC(=O)N3CCC[C@H]3C#N)c(C(F)(F)F)n2n1

- Cmax [2]: 54 nM
- Cmax [3]: 747 ng/mL
- Cmax [4]: 68 ng/mL
- Tmax [5]: 0.25 h
- Tmax [6]: 0.25 h
- half-life [7]: 1.9 h
- AUC (Rattus norvegicus [8]): 1110 ng·h/mL
- bioavailability [9]: 27%
- clearance [10]: 10.3 mL/min/kg
- Vdss (Canis familiaris [11]): 0.75 L/kg
- Cmax [12]: 282 ng/mL
- Tmax [13]: 1 h
- half-life [14]: 1.3 h
- AUC (Canis familiaris [15]): 6390 ng·h/mL
- bioavailability [16]: 98%
- clearance [17]: 37.2 mL/min/kg
- Vdss (Rattus norvegicus [18]): 1.61 L/kg
- fraction unbound at 0.5 h, 20 ng/ml [19]: 0.779
- fraction unbound at 0.5 h, 2000 ng/ml [20]: 0.821
- fraction unbound at 0.5 h, 20 ng/ml [21]: 0.775
- fraction unbound at 0.5 h, 2000 ng/ml [22]: 0.801
- fraction unbound at 0.5 h, 20 ng/ml [23]: 0.811
- fraction unbound at 0.5 h, 2000 ng/ml [24]: 0.784
Compound: Cc1cc2ncc(C(=O)NCC(C)(C)NCC(=O)N3CCC[C@H]3C#N)c(C)n2n1.Cl
- Activity (Rattus norvegicus [25]): Active
- inhibition in vivo at 10 mg/kg (Rattus norvegicus [26]): 90%
- inhibition (Rattus norvegicus [27]): Dose-dependent effect
- inhibition in vivo at 3 mg/kg (Rattus norvegicus [28]): 60%
